Experimental data reported in patent US20230082929A1, “METHODS OF GENERATING AND USING SENESCENT-INDUCED CELLS FOR TREATMENT OF CANCER AND COMPOSITIONS RELATING THERETO” (The Wistar Institute of Anatomy and Biology, priority 2020, published 2023).

Columns and labels:
SASP factors [1] = assay: SASP factor expression (qRT-PCR) and secretion (antibody array) in UPK10 cells; assay type: cell-based, mouse
Procedure: UPK10 and ID8 cells were treated with […], or a combination for three days. The drugs were then released from drug treatment and cultured for three days or extended period as indicated. The senescent cells were labelled with SPiDER-0 Gal Cellular Senescence Detection Kit (Dojindo, Cat. No: SG02-10) following the manufacture's instruction. Both senescent and non-senescent cells were sorted using flow cytometry. Mouse Cytokine Array C1 kit (RayBiotech. Cat. No: AAM-CYT-1-2) was used for cytokine analysis following the manufacturer's guidelines. Briefly, cells were washed once and cultured in serum-free medium for 48 hrs. Conditioned medium was filtered (0.2 μm) and then subjected to cytokine-array analysis. After collection of conditional media, the cell number of each sample was counted. The intensities of array dots were visualized on film after incubation with SuperSignal West Pico PLUS Chemiluminescent Substrate (Thermo Fisher Scientific. Cat. No: 34580). The integrated density was measured using Image J and normalized to the cell number from which the conditioned medium was generated. Total RNA was isolated using Trizol (Invitrogen) according to the manufacturer's instruction. Extracted RNAs were used for reverse-transcriptase PCR (RT-PCR) with High-Capacity cDNA Reverse Transcription Kit (Thermo fisher, Cat. No: 4368814). Quantitative PCR (qPCR) was performed using iTaq™ Universal SYBR® Green Supermix (BIO-RAD, Cat. No: 1725121) and QuantStudio 3 Real-Time PCR System.

UPK10 cells = assay: Senescence induction in UPK10 cells (SA-β-Gal, SPiDER SA-β-Gal, immunoblot); assay type: cell-based, mouse
Procedure: (§1) SA-β-Gal staining was performed as previously described (Nacarelli et al., 2019). Briefly, cells were fixed for 5 mins at room temperature in 2% formaldehyde/0.2 glutaraldehyde in PBS. After washing twice with PBS, cells were stained at 37° C. overnight in a non-CO2 incubator in staining solution (40 mM Na2HPO4, pH 6.0, 150 mM NaCl, 2 mM MgCl2, 5 mM K3Fe(CN)6, 5 mM K4Fe(CN)6, and 1 mg/ml X-gal. After counterstaining with Nuclear Fast Red solution (Ricca, Cat. No: R5463200500), slides were subjected to an alcohol dehydration series and mounted with Permount (FisherScientific. Cat. No: SP15-100). Slides were examined using a Zeiss AxioImager A2.
(§2) UPK10 and ID8 cells were treated with […], or a combination for three days. The drugs were then released from drug treatment and cultured for three days or extended period as indicated. The senescent cells were labelled with SPiDER-0 Gal Cellular Senescence Detection Kit (Dojindo, Cat. No: SG02-10) following the manufacture's instruction. Both senescent and non-senescent cells were sorted using flow cytometry.
(§3) Cells were lysed in 1× sample buffer (2% SDS, 10% glycerol, 0.01% bromophenol blue, 62.5 mM Tris, pH 6.8, and 0.1 M DTT) and heated to 95° C. for 10 min. Protein concentrations were determined using the protein assay dye (Bio-Rad. Cat. No: #5000006) and Nanodrop. An equal amount of total protein was resolved using SDS-PAGE gels and transferred to PVDF membranes at 110 V for 2 hours at 4° C. Membranes were blocked with 5% nonfat milk in TBS containing 0.1% Tween 20 (TBS-T) for 1 hour at room temperature. Membranes were incubated overnight at 4° C. in the primary antibodies in 4% BSA/TBS+0.025% sodium azide. Membranes were washed four times in TBS-T for 5 min at room temperature, after which they were incubated with HRP-conjugated secondary antibodies (Cell Signaling Technology. Cat. No: 7076S, 7074S) for 1 hour at room temperature. After washing four times in TBS-T for 5 min at room temperature, proteins were visualized on film after incubation with SuperSignal West Pico PLUS Chemiluminescent Substrate (Thermo Fisher Scientific. Cat. No: 34580).

ID8-Defb29/Vegf-a cells = assay: Cisplatin-induced senescence, SA-β-gal staining of ID8-Defb29/Vegf-a cells; assay type: cell-based, mouse; details: 2 μM Cisplatin for 48 hours
Procedure: For oncogene-induced senescence, IMR90 cells were infected with retrovirus produced by pBABE-puro-H-RAS^G12V (Addgene) at 37° C. for 24 hr. A second round of infection was performed on the same target cells. Infected cells were drug-selected using 3 μg/ml puromycin (Nacarelli et al., 2019). For Etoposide-induced senescence, IMR90 or OVCAR3 cells at approximately 60-70% confluency were treated with 50 μM or 2 μM Etoposide for 48 hours. The treated cells were cultured in fresh medium and harvested at day 8. For Cisplatin-induced senescence, OVCAR3 or ID8-Defb29/Vegf-a cells at approximately 60-70% confluency were treated with 2 μM Cisplatin for 48 hours. The treated cells were cultured in fresh medium and harvested at day 8.
as §1

TOP1cc = target: T1, TOP1cc (Mus musculus, UniProt Q04750); assay: Immunoblot of TOP1cc and SASP regulators in sorted UPK10 cells; assay type: cell-based
T1 construct: endogenous in cells; host or cells: UPK10 mouse ovarian cancer cells, sorted senescent and non-senescent fractions
T1 sequence (Q04750 1-767): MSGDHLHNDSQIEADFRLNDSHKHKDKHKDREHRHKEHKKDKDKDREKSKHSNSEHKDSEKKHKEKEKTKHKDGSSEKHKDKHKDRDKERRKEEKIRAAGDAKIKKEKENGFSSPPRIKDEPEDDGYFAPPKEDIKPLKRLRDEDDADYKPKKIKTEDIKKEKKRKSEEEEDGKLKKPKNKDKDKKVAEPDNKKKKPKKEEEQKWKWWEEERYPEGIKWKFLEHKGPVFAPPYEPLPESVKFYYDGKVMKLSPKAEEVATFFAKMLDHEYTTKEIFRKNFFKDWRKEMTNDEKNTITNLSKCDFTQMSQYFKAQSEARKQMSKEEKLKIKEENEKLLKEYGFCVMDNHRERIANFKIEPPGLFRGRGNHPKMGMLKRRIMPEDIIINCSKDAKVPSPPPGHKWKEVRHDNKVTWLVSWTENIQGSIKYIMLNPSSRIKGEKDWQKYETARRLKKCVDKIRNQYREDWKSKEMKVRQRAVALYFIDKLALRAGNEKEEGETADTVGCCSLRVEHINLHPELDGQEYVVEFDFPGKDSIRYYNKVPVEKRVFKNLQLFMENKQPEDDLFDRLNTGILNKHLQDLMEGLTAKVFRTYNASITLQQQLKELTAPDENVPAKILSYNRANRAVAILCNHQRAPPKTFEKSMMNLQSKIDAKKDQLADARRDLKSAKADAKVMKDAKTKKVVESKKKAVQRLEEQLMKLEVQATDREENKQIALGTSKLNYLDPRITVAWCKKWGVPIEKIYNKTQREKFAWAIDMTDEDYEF
Procedure: as §2, §3
• anti-Topoisomerase I-DNA Covalent Complexes (TOP1cc) (clone 1.1A) (Millipore. Cat. No: MABE1084), 1:1000 for slot blot • anti-TOP1 (Proteintech. Cat. No: 20705-1-AP), 1:1000 for immunoblotting • anti-cGAS (D9) (Santa Cruz. Cat. No: sc-515777), 1:1000 for immunoblotting; • anti-Cyclin A (H432) (Santa Cruz. Cat. No: sc-751), 1:1000 for immunoblotting; • anti-βactin (Sigma. Cat. No: A2228), 1:10000 for immunoblotting.

SASP factors [2] = assay: SASP factor expression by qRT-PCR in ID8 cells; assay type: cell-based, mouse
Procedure: UPK10 and ID8 cells were treated with […], or a combination for three days. The drugs were then released from drug treatment and cultured for three days or extended period as indicated. The senescent cells were labelled with SPiDER-0 Gal Cellular Senescence Detection Kit (Dojindo, Cat. No: SG02-10) following the manufacture's instruction. Both senescent and non-senescent cells were sorted using flow cytometry. Total RNA was isolated using Trizol (Invitrogen) according to the manufacturer's instruction. Extracted RNAs were used for reverse-transcriptase PCR (RT-PCR) with High-Capacity cDNA Reverse Transcription Kit (Thermo fisher, Cat. No: 4368814). Quantitative PCR (qPCR) was performed using iTaq™ Universal SYBR® Green Supermix (BIO-RAD, Cat. No: 1725121) and QuantStudio 3 Real-Time PCR System.

[3] = cisplatin three days, three days of release

Cc1ccc2c(=O)c3cccc(CC(=O)O)c3oc2c1C [DMXAA]
SASP factor levels compared with senescent cells sorted from cisplatin and irinotecan combination treatment (SASP factors [1]; UPK10 cells): significantly lower levels
expression and secretion of SASP factors (SASP factors [1]; UPK10 cells, DMXAA as control): sufficient to increase the expression and secretion of SASP factors

N.N.[Cl][Pt][Cl] [cisplatin, Cisplatin]
cell proliferation marker cyclin A (UPK10 cells; [3]): decrease in cell proliferation marker cyclin A
markers of senescence (SA-β-Gal activity, p16, γH2AX) (UPK10 cells; [3]): induction of markers of senescence including senescence-associated β-galactosidase (SA-β-Gal) activity, p16 and γH2AX
concentration chosen on optimal induction of SASP factors IL1β, IL8, CXCL10 in a dose-titration study (SASP factors [1]; UPK10 cells): 10 µM
treated cells in which senescence was induced (ID8-Defb29/Vegf-a cells): ~100%

CCc1c2c(nc3ccc(OC(=O)N4CCC(N5CCCCC5)CC4)cc13)-c1cc3c(c(=O)n1C2)COC(=O)[C@]3(O)CC [irinotecan]
percentage of senescent cells induced by cisplatin with or without irinotecan (SPiDER SA-β-Gal) (UPK10 cells): comparable
SA-β-Gal activity (SPiDER) (UPK10 cells; irinotecan alone): also induced SA-β-Gal activity
expression of SASP factors at the mRNA levels (qRT-PCR) (SASP factors [1]; sorted senescent UPK10 cells induced by cisplatin): significantly increased the expression of SASP factors
TOP1cc levels in sorted senescent cells (TOP1cc; compared with cisplatin-induced senescent cells, UPK10): increased by irinotecan addition
TOP1cc levels in sorted non-senescent cells (TOP1cc; compared with vehicle control treated non-senescent cells, UPK10): notably higher
SASP regulators phospho-p65 NF-κB and phosphor-p38 MAPK (TOP1cc; sorted senescent UPK10 cells): increase in SASP regulators such as phospho-p65 NF-κB and phosphor-p38 MAPK
SASP expression in cisplatin-induced senescent ID8 cells (SASP factors [2]): boosts SASP expression
